Source: patent US20220402948A1, “EGFR INHIBITOR, COMPOSITION AND PREPARATION METHOD THEREFOR” (BETTA PHARMACEUTICALS CO., LTD., priority 2019, published 2022)
Like-named read-outs stand apart in the source and are kept apart here.

What was measured:
[1] = biological target: Ba/F3 cells with EGFR Δ19del/T790M/C797S mutation gene stably overexpressed (Homo sapiens, UniProt P00533, T790M/C797S, cells depend on it, form not given); assay: Ba/F3-Δ19del/T790M/C797S cell proliferation assay (CellTiter Glo, 72 hours); type: cell-based; settings: Table 2, read-out: EGFR Δ19del/T790M/C797S IC50
Outline: (§1)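 Ba/F3 cells stably overexpressing wild-type EGFR or EGFR Δ19del/T790M/C797S were seeded at 2000 cells/well and incubated 72 h with compound. Viability was read by CellTiter-Glo luminescence, and IC50 came from a four-parameter logistic fit of signal against log concentration.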

A431 = A431 cell proliferation assay (CellTiter Glo, 72 hours); type: cell-based; settings: cell proliferation, A431, 72 hours, Table 2, read-out: A431 IC50
Outline: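 Luminescence (CellTiter-Glo) after 72 h treatment gives viability, fitted by nonlinear regression to yield IC50. Cells seeded at 2000 per well; nine 3-fold concentrations from 1000 nM, DMSO final 0.1% (0.5% for certain compounds).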

EGFRΔ19del/T790M/C797S = EGFRΔ19del/T790M/C797S (Homo sapiens, UniProt P00533, T790M/C797S, form not given); assay: EGFR Δ19del/T790M/C797S kinase test (mobility variation analysis, Caliper EZ Reader); type: biochemical; settings: kinase enzymatic activity, Table 1
Outline: (§2)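 Read-out is substrate-to-product conversion by mobility shift, stopped after incubation at room temperature with ATP and substrate, following a 10-minute room-temperature compound–enzyme pre-incubation. IC50 obtained by four-parameter variable-slope fitting of inhibition normalized between enzyme-free and uninhibited controls.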

[2] = biological target: Ba/F3-EGFR wild-type cell line (Homo sapiens, UniProt P00533); assay: Ba/F3-EGFR wild-type cell proliferation assay (CellTiter Glo, 72 hours); type: cell-based; settings: Table 2, read-out: EGFR WT IC50
Outline: as §1

IGF1R = IGF1R (Homo sapiens, UniProt P08069); assay: IGF1R kinase test (mobility variation analysis, Caliper EZ Reader); type: biochemical; settings: kinase enzymatic activity, Table 1; read-out: EGFR IGF1R IC50
Outline: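 Mobility-shift readout of substrate conversion, normalised to positive (no compound) and negative (no kinase) controls, gives % inhibition and IC50 by four-parameter fit. Compounds, 3-fold dilutions over 10 concentrations starting at 3000 nM, preincubated 10 min with kinase before ATP/substrate start; room temperature.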

EGFR WT = EGFR WT (Homo sapiens, UniProt P00533); assay: EGFR WT kinase test (mobility variation analysis, Caliper EZ Reader); type: biochemical; settings: kinase enzymatic activity, Table 1
Outline: as §2

Sequence of IGF1R (P08069 31-1367, species assumed): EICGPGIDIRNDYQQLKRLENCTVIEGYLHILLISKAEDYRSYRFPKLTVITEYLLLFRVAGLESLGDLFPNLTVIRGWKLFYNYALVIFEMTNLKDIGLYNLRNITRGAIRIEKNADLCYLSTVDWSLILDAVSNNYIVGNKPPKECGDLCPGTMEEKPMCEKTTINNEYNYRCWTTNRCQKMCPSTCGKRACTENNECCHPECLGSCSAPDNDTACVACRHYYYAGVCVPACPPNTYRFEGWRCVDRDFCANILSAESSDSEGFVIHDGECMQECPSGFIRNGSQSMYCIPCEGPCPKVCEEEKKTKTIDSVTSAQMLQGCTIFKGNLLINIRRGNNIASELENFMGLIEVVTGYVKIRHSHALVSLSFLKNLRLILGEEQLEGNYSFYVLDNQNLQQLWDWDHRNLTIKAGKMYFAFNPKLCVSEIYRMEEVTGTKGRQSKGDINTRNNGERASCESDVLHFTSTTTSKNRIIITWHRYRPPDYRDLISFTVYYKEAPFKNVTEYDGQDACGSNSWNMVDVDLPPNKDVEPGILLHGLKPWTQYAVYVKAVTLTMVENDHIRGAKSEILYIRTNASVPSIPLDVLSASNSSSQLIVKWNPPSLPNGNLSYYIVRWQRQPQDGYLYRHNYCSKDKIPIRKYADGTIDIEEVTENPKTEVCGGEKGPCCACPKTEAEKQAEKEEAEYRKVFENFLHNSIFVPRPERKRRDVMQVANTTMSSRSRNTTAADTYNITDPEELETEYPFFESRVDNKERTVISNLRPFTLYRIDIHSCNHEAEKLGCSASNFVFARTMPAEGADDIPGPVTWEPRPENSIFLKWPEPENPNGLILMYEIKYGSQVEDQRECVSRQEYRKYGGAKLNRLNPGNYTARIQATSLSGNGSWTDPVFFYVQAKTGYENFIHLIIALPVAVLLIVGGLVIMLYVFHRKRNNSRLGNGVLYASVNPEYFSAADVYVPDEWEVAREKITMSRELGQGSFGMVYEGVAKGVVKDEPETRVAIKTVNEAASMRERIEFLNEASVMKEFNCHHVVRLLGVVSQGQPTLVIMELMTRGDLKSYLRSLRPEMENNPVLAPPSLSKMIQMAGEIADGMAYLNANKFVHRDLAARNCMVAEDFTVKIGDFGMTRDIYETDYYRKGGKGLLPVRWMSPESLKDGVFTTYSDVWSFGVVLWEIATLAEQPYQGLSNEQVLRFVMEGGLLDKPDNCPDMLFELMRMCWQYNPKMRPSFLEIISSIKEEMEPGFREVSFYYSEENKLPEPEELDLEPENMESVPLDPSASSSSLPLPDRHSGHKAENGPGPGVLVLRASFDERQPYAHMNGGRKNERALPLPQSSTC
Sequence of EGFR WT (P00533 25-1210): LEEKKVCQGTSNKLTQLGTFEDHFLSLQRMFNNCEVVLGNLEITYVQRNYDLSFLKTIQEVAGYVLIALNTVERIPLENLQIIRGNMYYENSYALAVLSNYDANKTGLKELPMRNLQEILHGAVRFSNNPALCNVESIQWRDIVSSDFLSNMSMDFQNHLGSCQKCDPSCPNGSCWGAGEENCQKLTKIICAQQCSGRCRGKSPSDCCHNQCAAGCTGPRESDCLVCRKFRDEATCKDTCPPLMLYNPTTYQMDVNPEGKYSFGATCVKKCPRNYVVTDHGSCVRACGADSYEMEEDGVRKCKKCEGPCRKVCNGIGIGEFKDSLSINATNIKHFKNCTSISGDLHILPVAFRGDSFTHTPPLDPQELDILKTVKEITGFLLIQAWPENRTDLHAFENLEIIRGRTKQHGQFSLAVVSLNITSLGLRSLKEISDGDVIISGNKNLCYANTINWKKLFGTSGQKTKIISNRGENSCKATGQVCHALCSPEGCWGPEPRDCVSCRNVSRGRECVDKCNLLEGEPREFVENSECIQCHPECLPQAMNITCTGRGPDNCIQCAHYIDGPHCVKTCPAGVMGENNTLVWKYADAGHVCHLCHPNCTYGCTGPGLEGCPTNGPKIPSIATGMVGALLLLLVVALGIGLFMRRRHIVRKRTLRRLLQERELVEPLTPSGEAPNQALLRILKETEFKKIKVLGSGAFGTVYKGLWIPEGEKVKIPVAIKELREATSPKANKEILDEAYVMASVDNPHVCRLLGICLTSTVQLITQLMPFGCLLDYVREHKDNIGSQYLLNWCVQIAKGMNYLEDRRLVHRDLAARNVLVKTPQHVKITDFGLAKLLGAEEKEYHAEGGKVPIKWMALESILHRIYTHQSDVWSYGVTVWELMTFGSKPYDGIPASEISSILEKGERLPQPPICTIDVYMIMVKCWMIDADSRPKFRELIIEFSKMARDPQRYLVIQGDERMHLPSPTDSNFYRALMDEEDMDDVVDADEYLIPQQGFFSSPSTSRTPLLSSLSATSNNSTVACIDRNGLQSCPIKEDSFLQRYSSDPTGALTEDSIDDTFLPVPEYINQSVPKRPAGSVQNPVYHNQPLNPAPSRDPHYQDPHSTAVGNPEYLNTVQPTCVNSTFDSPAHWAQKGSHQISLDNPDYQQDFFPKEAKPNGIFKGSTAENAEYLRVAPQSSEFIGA
Sequence of Ba/F3 cells with EGFR Δ19del/T790M/C797S mutation gene stably overexpressed (P00533 with tags, fused parts or gaps DEL746-750/T790M/C797S, form open): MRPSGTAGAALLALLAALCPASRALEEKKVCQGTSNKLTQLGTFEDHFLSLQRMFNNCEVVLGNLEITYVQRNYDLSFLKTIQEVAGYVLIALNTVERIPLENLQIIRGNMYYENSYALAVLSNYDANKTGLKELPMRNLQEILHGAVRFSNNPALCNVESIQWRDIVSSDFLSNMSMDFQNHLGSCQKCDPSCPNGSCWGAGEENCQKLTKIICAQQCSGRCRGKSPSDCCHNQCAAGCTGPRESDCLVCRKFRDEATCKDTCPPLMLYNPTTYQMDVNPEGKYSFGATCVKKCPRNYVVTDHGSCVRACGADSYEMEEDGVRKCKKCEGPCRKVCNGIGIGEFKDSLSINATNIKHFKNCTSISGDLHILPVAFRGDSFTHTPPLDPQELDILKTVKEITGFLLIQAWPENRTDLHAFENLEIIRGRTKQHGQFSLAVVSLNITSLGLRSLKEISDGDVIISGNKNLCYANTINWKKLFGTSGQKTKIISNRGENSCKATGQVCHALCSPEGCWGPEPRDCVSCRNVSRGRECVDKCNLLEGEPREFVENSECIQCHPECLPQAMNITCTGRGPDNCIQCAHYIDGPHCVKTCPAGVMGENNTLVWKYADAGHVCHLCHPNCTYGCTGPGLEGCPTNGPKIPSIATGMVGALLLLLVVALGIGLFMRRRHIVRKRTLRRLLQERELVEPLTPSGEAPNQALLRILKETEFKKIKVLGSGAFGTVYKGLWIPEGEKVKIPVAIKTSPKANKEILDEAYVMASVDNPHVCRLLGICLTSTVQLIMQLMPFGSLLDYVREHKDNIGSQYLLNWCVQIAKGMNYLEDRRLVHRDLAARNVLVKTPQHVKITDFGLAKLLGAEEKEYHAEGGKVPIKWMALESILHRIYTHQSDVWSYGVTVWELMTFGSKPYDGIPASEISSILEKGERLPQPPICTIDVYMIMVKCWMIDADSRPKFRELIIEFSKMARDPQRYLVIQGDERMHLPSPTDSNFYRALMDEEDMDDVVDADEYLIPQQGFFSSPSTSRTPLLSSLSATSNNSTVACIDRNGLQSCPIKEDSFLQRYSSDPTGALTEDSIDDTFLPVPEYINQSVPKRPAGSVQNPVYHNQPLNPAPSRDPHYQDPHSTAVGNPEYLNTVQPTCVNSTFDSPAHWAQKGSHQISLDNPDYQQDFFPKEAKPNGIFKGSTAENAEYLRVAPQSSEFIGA
Sequence of EGFRΔ19del/T790M/C797S (P00533 with tags, fused parts or gaps DEL746-750/T790M/C797S, form open): as above

CCc1cc(Nc2ncc(Br)c(Nc3ccc(-c4cncc(OC)n4)cc3P(C)(C)=O)n2)c(OC)cc1N1CCC(N2CCN(C)CC2)CC1 [Compound 59, (2-((5-Bromo-2-((5-ethyl-2-methoxy-4-(4-(4-methylpiperazin-1-yl)piperidin-1-yl)phenyl)amino)pyrimidin-4-yl)amino)-5-(6-methoxypyrazin-2-yl)phenyl)dimethylphosphine oxide]
GI50 [1]: 0.0263 µM | IC50 (A431): 2.3 µM | IC50 (EGFRΔ19del/T790M/C797S): 0.0013 µM | GI50 [2]: 1.29 µM | IC50 (IGF1R): 0.395 µM | IC50 (EGFR WT): 0.041 µM

CCc1cc(Nc2ncc(Br)c(Nc3ccc(-c4cnn(CC)n4)cc3P(C)(C)=O)n2)c(OC)cc1N1CCC(N2CCN(C)CC2)CC1 [Compound K-062, (2-((5-Bromo-2-((5-ethyl-2-methoxy-4-(4-(4-methylpiperazin-1-yl)piperidin-1-yl)phenyl)amino)pyrimidin-4-yl)amino)-5-(2-ethyl-2H-1,2,3-triazol-4-yl)phenyl)dimethylphosphine oxide]
GI50 [1]: 0.0239 µM | IC50 (A431; Homo sapiens, A-431, 72 h): 1.8 µM | IC50 (EGFRΔ19del/T790M/C797S): 0.0002 µM | GI50 [2]: 0.459 µM | IC50 (IGF1R): 0.126 µM | IC50 (EGFR WT): 0.018 µM

COc1cc(Nc2ncc(Br)c(Nc3ccc(-c4cnn(C)n4)c(F)c3P(C)(C)=O)n2)c(C)cc1N1CC(C)OC(C)C1 (stereo not drawn) [Compound K-037, (6-((5-Bromo-2-((4-(2,6-dimethylmorpholine)-5-methoxy-2-methylphenyl)amino)pyrimidin-4-yl)amino)-2-fluoro-3-(2-methyl-2H-1,2,3-triazol-4-yl)phenyl)dimethylphosphine oxide]
GI50 [1]: 0.0109 µM | IC50 (A431; Homo sapiens, A-431, 72 h): 7.53 µM | IC50 (EGFRΔ19del/T790M/C797S): 0.0008 µM | GI50 [2]: 0.374 µM | IC50 (IGF1R): 0.251 µM | IC50 (EGFR WT): 0.125 µM

COc1cc(Nc2ncc(Br)c(Nc3ccc(-c4cnn(C)n4)cc3P(C)(C)=O)n2)c(C)cc1N1CCOCC1 [Compound K-015, (2-((5-Bromo-2-((5-methoxy-2-methyl-4-morpholinophenyl)amino)pyrimidin-4-yl)amino)-5-(2-methyl-2H-1,2,3-triazol-4-yl)phenyl)dimethylphosphine oxide]
GI50 [1]: 0.0136 µM | IC50 (A431; Homo sapiens, A-431, 72 h): 0.953 µM | IC50 (EGFRΔ19del/T790M/C797S): 0.0002 µM | GI50 [2]: 0.178 µM | IC50 (IGF1R): 0.0566 µM | IC50 (EGFR WT): 0.0274 µM

CCc1cc(Nc2ncc(Br)c(Nc3ccc(-c4ccccc4)cc3P(C)(C)=O)n2)c(OC)cc1N1CCC(N2CCOCC2)CC1 [Compound K-047, (4-((5-Bromo-2-((5-ethyl-2-methoxy-4-(4-morpholinopiperidin-1-yl)phenyl)amino)pyrimidin-4-yl)amino)-[1,1′-biphenyl]-3-yl)dimethylphosphine oxide]
GI50 [1]: 0.0298 µM | IC50 (A431; Homo sapiens, A-431, 72 h): 12.6 µM | IC50 (EGFRΔ19del/T790M/C797S): 0.0008 µM | GI50 [2]: 0.0956 µM | IC50 (IGF1R): 0.217 µM | IC50 (EGFR WT): 0.043 µM
